Values quoted from earlier work in PMC8764166, “Phenolic-Rich Plant Extracts With Antimicrobial Activity: An Alternative to Food Preservatives and Biocides?” (Frontiers in Microbiology, 2022).
Where two headings read alike, the source gives them in different places.

Key:
[1] = tested on: S. aureus; design: method as in Wu et al., 2016; details: ref Wu et al., 2016
[2] = tested on: S. aureus; design: method as in Wu et al., 2016, 2019; details: ref Wu et al., 2016, 2019
[3] = tested on: transmembrane peptidase sortase A, SrtA; design: method as in Wu et al. (2019); details: ref Wu et al. (2019)
[4] = tested on: Escherichia coli; details: ref Adamczak et al., 2020
[5] = tested on: L. monocytogenes; design: method as in Pernin et al., 2019; details: ref Pernin et al., 2019
[6] = tested on: B. subtilis; design: method as in Wu et al., 2020; details: ref Wu et al., 2020
[7] = tested on: Salmonella typhimurium; details: ref Phadungkit and Luanratana, 2006
[8] = tested on: Bacillus cereus; design: method as in Serra et al. (2008); details: 20 mg·L^−1 quercetin, in grape extract or as solution; ref Serra et al. (2008)
[9] = tested on: DNA gyrase; design: method as in Plaper et al., 2003; details: ref Plaper et al., 2003
[10] = tested on: biofilms with undesirable food spoiling or foodborne pathogenic microorganisms; design: method as in the references listed per substance; details: the references listed per substance
[11] = tested on: B. subtilis, E. coli, S. aureus, and S. typhimurium; design: method as in Dinesh Kumar et al., 2016; details: all test bacteria; ref Dinesh Kumar et al., 2016

Row | Compound | cytoplasmic membrane damage [1] | S. aureus biofilm formation [2] | S. aureus biofilm formation ([2]; listed as coumaroyl-2-hydroxyquinic acid) | sortase A (SrtA) inhibition [3] | MIC against E. coli [4] | mechanism of action against L. monocytogenes [5] | intracellular metabolism (metabolomics) [6] | MIC against S. typhimurium [7] | growth of Bacillus cereus [8] | DNA gyrase inhibition [9] | activity against biofilms [10] | time after which antibacterial effect is lost [11] [h]
1 | O=C(/C=C/c1ccc(O)cc1)OC1C(O)C(O)CC(O)(C(=O)O)C1O (stereo not drawn) [3-p-trans-coumaroyl-2-hydroxyquinic acid] | – interaction with membrane lipid and protein, damage of cytoplasmic membrane with a significant membrane hyperpolarization, a loss of membrane integrity and severe morphological changes | – inhibits the biofilm formation of S. aureus by affecting the initial attachment phase of biofilm development | not only inhibits S. aureus biofilm formation, but also the attachment phase | inhibiting the transmembrane peptidase sortase A, SrtA |  |  |  |  |  |  |  | 
2 | O=C(/C=C/c1ccc(O)c(O)c1)O[C@@H]1C[C@](O)(C(=O)O)C[C@@H](O)[C@H]1O [Chlorogenic acid] |  |  |  |  | E. coli 0.5 g·L^−1 | decrease in extracellular pH | – induction of the intracellular metabolic imbalance of the tricarboxylic acid cycle and glycolysis, leading to metabolic disorder and death |  |  |  |  | 
3 | O=c1c(O)c(-c2ccc(O)c(O)c2)oc2cc(O)cc(O)c12 [Quercetin] |  |  |  |  | E. coli 0.5 g·L^−1 |  |  | S. typhimurium 15.6 mg·L^−1 | totally inhibited the growth of Bacillus cereus unlike a 20 mg·L^−1 quercetin solution | – DNA gyrase inhibition either by interaction of quercetin with DNA or with ATP binding site of gyrase | inhibit formation or to eradicate biofilms | 2 to 9
